# Laboratory results reported in article PMC12018048, “Intranasal kisspeptin administration rapidly stimulates gonadotropin release in humans” (eBioMedicine, 2025).
# Legend:
# serum LH = conditions: cited from earlier work
# Method: This was the first study to examine the effects of intranasal kisspeptin administration on reproductive hormone secretion in humans. […] We have previously examined a single intravenous bolus of 6.4, 12.8, and 25.6 nmol/kg of kisspeptin-54 in healthy men.[59] In that study, peak LH levels occurred 4–6 h after intravenous kisspeptin administration with a maximal increase from baseline of 8–10 IU/L for the three doses tested.[59] In the current study, a far more rapid increase in serum LH was observed after intranasal kisspeptin for all four doses tested with peak LH stimulation (4.45 IU/L abo ...
# [1] = set-up: method as in PMID 37467734; conditions: intravenous and subcutaneous routes, over 1000 healthy men and women and patients; cited from earlier work
# [2] = Stability of kisspeptin-54 solutions for nasal delivery; assay type: physicochemical; conditions: 2 M HCL or phosphate buffer at 60 °C for 72 h, HPLC-UV
substance,measurement,setting,value
Kisspeptin-54,Maximal increase from baseline in LH,"serum LH; healthy men, single intravenous bolus of 6.4, 12.8, and 25.6 nmol/kg",8–10 IU/L
same,"Increase in serum LH, mean","serum LH; healthy volunteers, intravenous, standard deviation 0.4 IU/L",10.2 IU/L
same,Adverse effects,[1],without any observed adverse effects
same,Forced degradation (HPLC assay specificity),[2],loss or reduction of the kisspeptin peak
